In patent US20230012368A1 (Hoffmann-La Roche Inc., priority 2018, published 2023) one finds IC90 data, which are given here for 29 compounds.

Structures can show the parent of a compound that is named as a salt.

The first assay relates to Acinetobacter baumannii ATCC 17978. Description: Antimicrobial susceptibility testing: 90% growth inhibitory concentration (IC90) determination. The class given is cell-based. The settings on record: 90% growth inhibitory concentration; Acinetobacter baumannii ATCC17978; Iso-Sensitest broth, OD 600 nm over 16h; read-out: ATCC17978 IC90. The method, boiled down:
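Compounds serially twofold diluted (e.g. 50 to 0.097 μM final) in Iso-Sensitest broth, inoculated at ~5×10^(5) CFU/ml, incubated at 35±2° C. OD600 read every 20 minutes over 16h. IC90 taken as concentration inhibiting 90% of growth during logarithmic phase.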
As for “4-((3-(4- (difluoromethoxy) phenyl)imidazo[1,2- a]pyrazin-8- yl)amino)-N-methyl- 2- (trifluoromethyl) benzamide [Example 53]”, the concentration for an effect of 90% (IC90) is 240 nM.

On to `COc1ccc(-c2cnc3c(Nc4ccc(C(=O)NCC5CCOCC5)c(Cl)c4)nccn23)c(F)c1F` [Example 40, 2-chloro-4-[[3-(2,3-difluoro-4-methoxy-phenyl)imidazo[1,2-a]pyrazin-8-yl]amino]-N-(tetrahydropyran-4-ylmethyl)benzamide; 2,2,2-trifluoroacetic acid], for which the IC90 stood at 180 nM.

As to `CCc1cc(Nc2nccn3c(-c4ccc(Oc5ccc(C(=O)NCCCN)cn5)c(F)c4F)cnc23)ccc1C(=O)NC` [Example 507, N-(3-aminopropyl)-6-[4-[8-[3-ethyl-4-(methylcarbamoyl)anilino]imidazo[1,2-a]pyrazin-3-yl]-2,3-difluoro-phenoxy]pyridine-3-carboxamide; formic acid], the concentration for an effect of 90% (IC90) was 500 nM.

Turning to `CCc1cc(Nc2nccn3c(-c4ccc(OC)c(F)c4Cl)cnc23)ccc1C(=O)NCCCN` [Example 389, N-(3-aminopropyl)-4-[[3-(2-chloro-3-fluoro-4-methoxyphenyl)imidazo[1,2-a]pyrazin-8-yl]amino]-2-ethylbenzamide; hydrochloride], the IC90 is 500 nM.

Staying with this assay, now noted: Acinetobacter baumannii, ATCC17978, 16 h, 90% growth inhibitory concentration; Acinetobacter baumannii ATCC17978; Iso-Sensitest broth, OD 600 nm over 16h; read-out: ATCC17978 IC90.
On to `COc1ccc(-c2cnc3c(Nc4ccc(C(=O)NCCC5(O)CCNCC5)c(C)c4)nccn23)cc1F` [Example 281, 4-[[3-(3-fluoro-4-methoxyphenyl)imidazo[1,2-a]pyrazin-8-yl]amino]-N-[2-(4-hydroxypiperidin-4-yl)ethyl]-2-methylbenzamide;2,2,2-trifluoroacetic acid], for which the IC90 is 930 nM.

For `CN(CCC1CCNCC1)C(=O)c1ccc(Nc2nccn3c(-c4ccc(OC(F)F)cc4)cnc23)cc1Cl` [Example 23, 2-chloro-4-((3-(4-(difluoromethoxy)phenyl)imidazo[1,2-a]pyrazin-8-yl)amino)-N-methyl-N-(2-(piperidin-4-yl)ethyl)benzamide hydrochloride], the IC90 was found to be 150 nM.

Take `COc1ccc(-c2cnc3c(Nc4ccc(C(=O)NCCCCCCN)c(Cl)c4)nccn23)c(F)c1F` [Example 495, N-(6-aminohexyl)-2-chloro-4-((3-(2,3-difluoro-4-methoxyphenyl)imidazo[1,2-a]pyrazin-8-yl)amino)benzamide hydrochloride]: the IC90 came out at 34 nM.

In the case of `Cc1cc(Nc2nccn3c(-c4ccc(Cl)c(F)c4F)cnc23)ccc1C(=O)NCCC1CCNCC1` [Example 193, 4-[[3-(4-chloro-2,3-difluorophenyl)imidazo[1,2-a]pyrazin-8-yl]amino]-2-methyl-N-(2-piperidin-4-ylethyl)benzamide;hydrochlo-ride], the IC90 was 350 nM.

Consider `COc1ccc(-c2cnc3c(Nc4ccc(C(=O)NCCCNC(=O)[C@@H]5C[C@](C)(O)CN5)c(C)c4)nccn23)c(F)c1F` [Example 361, (2S,4S)-N-[3-[[4-[[3-(2,3-difluoro-4-methoxyphenyl)imidazo[1,2-a]pyrazin-8-yl]amino]-2-methylbenzoyl]amino]propyl]-4-hydroxy-4-methylpyrrolidine-2-carboxamide], for which the IC90 is 80 nM.

With `COc1ccc(-c2cnc3c(Nc4ccc5c(c4)CCN(CCO)C5=O)nccn23)c(F)c1F` [Example 302, 6-[[3-(2,3-difluoro-4-methoxyphenyl)imidazo[1,2-a]pyrazin-8-yl]amino]-2-(2-hydroxyethyl)-3,4-dihydroisoquinolin-1-one], the IC90 was 300 nM.

In the case of `CCc1cc(Nc2nccn3c(-c4ccc(OC)c(F)c4F)cnc23)ccc1C(=O)NCCCCCCN` [Example 494, N-(6-aminohexyl)-4-((3-(2,3-difluoro-4-methoxyphenyl)imidazo[1,2-a]pyrazin-8-yl)amino)-2-ethylbenzamide hydrochloride], the IC90 amounted to 37 nM.

With `CCc1cc(Nc2nccn3c(-c4ccc(OC)c(F)c4F)cnc23)ccc1C(=O)NCC1CCCN1` (centres unmarked) [Example 527, 4-((3-(2,3-difluoro-4-methoxyphenyl)imidazo[1,2-a]pyrazin-8-yl)amino)-2-ethyl-N-(pyrrolidin-2-ylmethyl)benzamide hydrochloride], the IC90 amounted to 480 nM.

As for `CCc1cc(Nc2nccn3c(-c4ccc(Cl)c(F)c4F)cnc23)ccc1C(=O)NCCNC(=O)[C@@H](N)CCCNC(=N)N` [Example 341, N-[2-[[(2S)-2-amino-5-carbamimidamidopentanoyl]amino]ethyl]-4-[[3-(4-chloro-2,3-difluorophenyl)imidazo[1,2-a]pyrazin-8-yl]amino]-2-ethylbenzamide], the IC90 is 650 nM.

For `Cc1cc(Nc2nccn3c(-c4ccc(OC(F)F)cc4)cnc23)ccc1C(=O)NCC1(O)CCNCC1` [Example 261, 4-[[3-[4-(difluoromethoxy)phenyl]im-idazo[1,2-a]pyrazin-8-yl]amino]-N-[(4-hydroxypiperidin-4-yl)methyl]-2-methylbenzamide; hydrochlo-ride], the IC90 came to 4900 nM.

On to `Cc1cc(Nc2nccn3c(-c4ccc(OC(F)F)cc4)cnc23)ccc1C(=O)N(C)CCN1CCCCC1` [Example 265, 4-[[3-[4-(difluoromethoxy)phenyl]im-idazo[1,2-a]pyrazin-8-yl]amino]-N,2-dimethyl-N-(2-piperidin-1-ylethyl)benzamide], for which the IC90 came out at 5100 nM.

As to `CCc1cc(Nc2nccn3c(-c4ccc(OCC#N)c(F)c4Cl)cnc23)ccc1C(=O)NCCNC(=O)[C@H](N)CCCNC(=N)N` [Example 127, N-[2-[[(2R)-2-amino-5-guanidino-pentanoyl]amino]ethyl]-4-[[3-[2-chloro-4-(cyanomethoxy)-3-fluoro-phenyl]imidazo[1,2-a]pyrazin-8-yl]amino]-2-ethyl-benzamide formate], the IC90 came to 90 nM.

For the compound `CCc1cc(Nc2nccn3c(-c4ccc(Oc5nccc(OC)n5)c(F)c4F)cnc23)ccc1C(=O)N[C@@H](C)CN` [Example 462, (S)-N-(1-aminopropan-2-yl)-4-((3-(2,3-difluoro-4-((4-methoxypyrimidin-2-yl)oxy)phenyl)imidazo[1,2-a]pyrazin-8-yl)amino)-2-ethylbenzamide], the IC90 was 520 nM.

For the compound `CNC(=O)c1ccc(Nc2nccn3c(-c4ccc(OC)c(Cl)c4)cnc23)cc1C` [Example 27, 4-((3-(3-chloro-4-methoxyphenyl)imidazo [1,2-a]pyrazin-8-yl)amino)-N,2-dimethylbenzamide], the IC90 worked out at 190 nM.

As for `CCc1cc(Nc2nccn3c(-c4ccc(OC)c(F)c4F)cnc23)ccc1C(=O)NCC(C)(C)CN` [Example 98, N-(3-amino-2,2-dimethylpropyl)-4-((3-(2,3-difluoro-4-methoxyphenyl)imidazo [1,2-a]pyrazin-8-yl)amino)-2-ethylbenzamide hydrochloride], the 90% effect concentration (IC90) turned out to be 780 nM.

As for `CCN(CC)C(=O)c1ccc(Nc2nccn3c(-c4ccc(OC)cc4)cnc23)cc1` [Example 227, N,N-diethyl-4-[[3-(4-methoxyphenyl)imidazo[1,2-a]pyrazin-8-yl]amino]benzamide], the IC90 was 610 nM.

As to `CNCCCN1CCc2cc(Nc3nccn4c(-c5ccc(OC)c(F)c5F)cnc34)ccc2C1=O` [Example 568, 6-[[3-(2,3-difluoro-4-methoxy-phenyl)imidazo[1,2-a]pyrazin-8-yl]amino]-2-[3-(methylamino)propyl]-3,4-dihydroisoquinolin-1-one], the IC90 is 390 nM.

In the case of `Cc1cc(Nc2nccn3c(-c4ccc(OC(F)F)cc4)cnc23)ccc1C(=O)N(C)CCCCN1CCOCC1` [Example 208, 4-[[3-[4-(difluoromethoxy)phenyl]im-idazo[1,2-a]pyrazin-8-yl]amino]-N,2-dimethyl-N-(4-morpholin-4-ylbutyl)benzamide], the IC90 stood at 580 nM.

Take `N#CCOc1ccc(-c2cnc3c(Nc4ccc(C(=O)NCCCCCCCN)c(Cl)c4)nccn23)c(F)c1F` [Example 521, N-(7-aminoheptyl)-2-chloro-4-((3-(4-(cyanomethoxy)-2,3-difluorophenyl)imidazo[1,2-a]pyrazin-8-yl)amino)benzamide]: the concentration for an effect of 90% (IC90) turned out to be 24 nM.

Regarding `CCc1cc(Nc2nccn3c(-c4ccc(OC(F)F)c(F)c4F)cnc23)ccc1C(=O)NCCc1nnc(C)[nH]1` [Example 295, 4-[[3-[4-(difluoromethoxy)-2,3-difluorophenyl]imidazo[1,2-a]pyrazin-8-yl]amino]-2-ethyl-N-[2-(5-methyl-4H-1,2,4-triazol-3-yl)ethyl]benzamide], the concentration for an effect of 90% (IC90) came to 140 nM.

Consider `COc1ccc(-c2cnc3c(Nc4ccc(C(=O)N[C@H](C)CNC(C)=N)c(Cl)c4)nccn23)c(F)c1F` [Example 501, 2-chloro-4-[[3-(2,3-difluoro-4-methoxyphenyl)imidazo[1,2-a]pyrazin-8-yl]amino]-#N!- [(2#R!)-1-(ethanimidoylamino)propan-2-yl]benzamide], for which the IC90 was found to be 69 nM.

As to `COc1ccc(-c2cnc3c(Nc4ccc(C(=N)OCC(=N)N(C)C)c(C)c4)nccn23)cc1` [Example 16], the IC90 worked out at 810 nM.

For `CCc1cc(Nc2nccn3c(-c4ccc(OC)c(F)c4F)cnc23)ccc1C(=O)NCC(O)CNC(=O)[C@@H](N)CCCN` (mixture of isomers) [Example 413, rac-N-(3-((R)-2,5-diaminopentanamido)-2-hydroxypropyl)-4-((3-(2,3-difluoro-4-methoxyphenyl)imidazo[1,2-a]pyrazin-8-yl)amino)-2-ethylbenzamide dihydrochloride], the IC90 is 470 nM.

For `COc1ccc(-c2cnc3c(Nc4ccc(C(=O)NCCCCCN)c(Cl)c4)nccn23)c(F)c1F` [Example 492, N-(5-aminopentyl)-2-chloro-4-((3-(2,3-difluoro-4-methoxyphenyl)imidazo[1,2-a]pyrazin-8-yl)amino)benzamide hydrochloride], the 90% effect concentration (IC90) came to 44 nM.

In the case of `Cc1cc(Nc2nccn3c(-c4ccc(Cl)cc4)cnc23)ccc1C(=O)NCCC1CCN(C)CC1` [Example 186, 4-[[3-(4-chlorophenyl)imidazo[1,2-a]pyrazin-8-yl]amino]-2-methyl-N-[2-(1-methylpiperidin-4-yl)ethyl]benzamide], the IC90 was determined as 260 nM.

By IC90 is commonly meant the concentration at which the effect reaches the 90% level.
